Source: PMC4712933, “Development of Follicle-Stimulating Hormone Receptor Binding Probes to Image Ovarian Xenografts” (Journal of biotechnology & biomaterials, 2015)
Where a SMILES comes first, the peptide text is derived from it. The star is where a group is joined. 5FAM = O=C1OC2(c3ccc(O)cc3Oc3cc(O)ccc32)c2ccc(C(=O)*)cc21

Tests used:
FSHR on OVCAR-3 cells = target: T1, FSHR on OVCAR-3 cells (Homo sapiens, UniProt P23945); experiment: Flow cytometry binding of BI-10^FAM to OVCAR-3 cells
T1 construct: endogenous in cells; host or cells: OVCAR-3 cells
T1 sequence (P23945 18-695): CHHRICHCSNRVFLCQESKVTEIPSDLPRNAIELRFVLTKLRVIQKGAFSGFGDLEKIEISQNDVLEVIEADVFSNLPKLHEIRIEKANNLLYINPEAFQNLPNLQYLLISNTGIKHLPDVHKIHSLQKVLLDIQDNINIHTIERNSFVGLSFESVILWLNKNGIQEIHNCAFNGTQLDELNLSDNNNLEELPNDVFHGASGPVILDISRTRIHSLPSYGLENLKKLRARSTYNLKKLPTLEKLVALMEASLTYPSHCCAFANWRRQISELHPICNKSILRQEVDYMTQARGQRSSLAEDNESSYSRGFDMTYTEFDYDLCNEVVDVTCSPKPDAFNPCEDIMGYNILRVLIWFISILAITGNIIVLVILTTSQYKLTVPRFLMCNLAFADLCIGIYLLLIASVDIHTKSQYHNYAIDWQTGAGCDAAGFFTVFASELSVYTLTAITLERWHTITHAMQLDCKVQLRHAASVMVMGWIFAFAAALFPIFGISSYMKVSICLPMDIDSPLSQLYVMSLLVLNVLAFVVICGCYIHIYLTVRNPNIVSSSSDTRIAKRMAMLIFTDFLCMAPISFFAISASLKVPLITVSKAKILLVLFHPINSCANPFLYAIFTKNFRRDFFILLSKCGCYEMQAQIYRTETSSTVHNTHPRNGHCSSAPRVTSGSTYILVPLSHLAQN
Protocol: OVCAR-3 cells (generously provided by Dr. Mellisa Fishell of Indiana University School of Medicine) were chosen for in vitro binding experiment due to its high level of FSHR expression. For the first 2–3 passages, the cells were plated in […] flasks using RPMI medium (supplemented with 5 μM Insulin (Sigma), 20% FBS (Hyclone), Sodium private (GIBCO), and Pen Strep (GIBCO)), and placed in an incubator (5% CO2 at a temperature of 37°C incubator) to maintain viability. For peptide binding experiments, cells were plated in six-well plates with the medium and environment conditions as previously described. Medium was changed every 2–3 days until cells reached more than 90% confluency. […] These samples were ready for imaging within the flow cytometer. […]
Each sample of OVCAR-3 cells was placed within the flow cytometer (Beckman Coulter FC500) and the FITC fluorescent intensity from the BI-10^FAM peptide bound to the OVCAR-3 cells were acquired. A TOPO-3 dye (Sigma) in 1 nM concentration was used to acquire the fluorescence from only viable cells in a two-color flow cytometry assay. Ten thousand cells were counted and the fluorescence measured in each sample. […] The EC50 value (binding affinity) and receptor saturation intensity were calculated using a nonlinear regression analysis using GraphPad Prism fitting algorithm (GraphPad Software, Inc.). […]

FSHR-rich Sertoli cells = FSHR-rich Sertoli cells from Bovine Calf testes; ref 29 (Lee et al); read-out: EC50, radio-ligand binding assay; cited from earlier work
FSHR [1] = conditions: cited from earlier work
Description: FSHR belongs to G protein-coupled receptor and consists of a transmembrane and an extracellular domain, where the former is characterized by a seven helical repeats and the latter by multiple leucine-rich repeats. FSHR is expressed on normal ovarian epithelium, e.g., the fallopian tubal epithelium, and shares about 70% transmembrane domain sequence with other G protein-coupled receptors, such as L ...

FSHR [2] = conditions: low doses; cited from earlier work
Description: Their small effective hydrodynamic diameter, high washout rates, and rapid renal filtration are highly valued for in vivo imaging, where an optimal tumor-to-reference tissue ratio (TRR) can be quickly reached. This was de ...

Molecule	binding to FSHR, in words (FSHR on OVCAR-3 cells; BI-10 binding curves)	EC50 (FSHR-rich Sertoli cells) [µM]	binding to FSHR, in words (FSHR [1]; functional radio ligand receptor assay, synthetic BI-10)	inhibition of FSH-stimulated estradiol and cAMP synthesis, in words (FSHR [1]; synthetic BI-10 peptide, high concentrations)	EC50 (FSHR on OVCAR-3 cells; OVCAR-3 cells, BI-10^FAM, 30 min incubation, 37°C incubator, 1.0-500 μM, wash with PBS, 5 mM EDTA detachment, median FITC fluorescence, flow cytometry, TOPO-3 viable gate, 10,000 cells, nonlinear regression, R^2=0.93, average of three measurements (Figure 1: n=5), read-out: EC50 (binding affinity, dose response curve)) [µM]	physiologic effects (FSHR [2])
TENLEPNGEGNH2 [BI-10]	highly specific but low in affinity	~300	specifically binds to FSHR	inhibits FSH-stimulated estradiol and secondary messenger cAMP synthesis at high concentrations	–	–
CC(C)C[C@H](NC(=O)[C@H](CC(N)=O)NC(=O)[C@H](CCC(=O)O)NC(=O)[C@@H](NC(=O)c1ccc2c(c1)C(=O)OC21c2ccc(O)cc2Oc2cc(O)ccc21)[C@@H](C)O)C(=O)N[C@@H](CCC(=O)O)C(=O)N1CCC[C@H]1C(=O)N[C@@H](CC(N)=O)C(=O)NCC(=O)N[C@@H](CCC(=O)O)C(=O)NCC(N)=O [BI-10^FAM] (5FAM-TENLEPNGEG-NH2)	–	–	–	–	160	negligible physiologic effects when used in low doses
